Measured values reported in patent US8940897B2, “1,3,4-oxadiazole and 1,3,4-thiadiazole β-lactamase inhibitors” (priority 2012, dated 2015).
Structures can show the parent of a compound that is named as a salt.

How the values were obtained:
[1] = test system: bacterial strains that express KPC β-lactamases; assay: Synergy MIC / standard BLI potentiation MIC assay, strains expressing KPC β-lactamases; format: cell-based; details: for at least one KPC strain and/or a better spectrum of activity against KPC strains than Avibactam; in the presence of a β-lactam
Description: Unless otherwise indicated, the activity of the BLI compounds can be described by the MIC value obtained from a Synergy MIC assay or a BLI potentiation assay (e.g as described herein), both of which are run in the presence of a β-lactam.
The experimental protocol was performed according to Clinical and Laboratory Standards Institute (CLSI) guidelines with modifications as described below (CLSI guidelines can be derived from the CLSI document M07-A9 published in January 2012: “Methods for Dilution Antimicrobial Susceptibility Tests for Bacteria That Grow Aerobically; Approved Standard-Ninth Edition”).
To prepare for MIC testing, frozen glycerol stocks of clinical isolates (Klebsiella pneumoniae, Eschericia coli, Enterobacter spp, Citrobacter spp, or Pseudomonas aeruginosa) were used to streak for isolated colonies on rich, non-selective, tryptic soy agar containing 5% sheep's blood (TSAB). Frozen glycerol stocks of laboratory engineered, isogenic E. coli strains, which contain cloned β-lactamase expressing plasmids were used to streak for isolated colonies on rich, selective LB agar supplemented with 25 μg/mL tetracycline to maintain the plasmid. All strains were incubated at 37° C. for 18-24 hrs.
On the day of testing, primary cultures were started by scraping off 5-10 colonies from the TSAB plates containing clinical strains or the tetracycline supplemented LB plates containing engineered strains. The clinical strain material was suspended in ˜5 mL of cation adjusted Mueller Hinton Broth (CAMHB) in 14 mL culture tubes. The engineered strain material was suspended in CAMHB (supplemented with 25 μg/mL tetracycline) in 14 mL culture tubes. All strains were incubated at 37° C. with aeration (200 rpm) for ˜2 hrs until the optical density at 600 nm (OD600) was ≧0.1.
The two compound components of the assay were each diluted in CAMHB and added to the 96-well broth microdilution assay plates. 50 μL of the β-lactam was added to each well of the assay plate in 2-fold dilutions with final concentrations ranging from 128 to 0.13 μg/mL. 25 μL of the BLI compound was added to all wells in the broth microdilution plates at a final concentration of 4 μg/mL. Inoculum cultures were prepared by standardizing the primary cultures to OD600=0.1 and then adding 20 μL of the adjusted primary culture per 1 mL CAMHB for clinical strains or CAMHB (supplemented with tetracycline at 100 μg/mL) for engineered strains, so that the final inoculum density was ˜10^5 colony forming units per milliliter. Diluted inoculum cultures were used to inoculate 25 μl, per well in 96-well broth microdilution assay plates. The final volume of each well was 100 μL and contained a β-lactam at different concentrations, a BLIcompound at 4 μg/mL concentration, the bacterial culture at an OD600 of approximately 0.001 and when necessary tetracycline at 25 μg/mL.
Plates were incubated for 18-20 hours at 37° C. with aeration (200 rpm). Following incubation, growth was confirmed visually placing plates over a viewing apparatus (stand with a mirror underneath) and then OD600 was measured using a SpectraMax 340PC384 plate reader (Molecular Devices, Sunnyvale, Calif.). Growth was defined as turbidity that could be detected with the naked eye or achieving minimum OD600 of 0.1. MIC values were defined as the lowest concentration producing no visible turbidity.
The synergy MIC (sMIC) assay determines the concentration of the BLI required to potentiate the activity of a fixed concentration of a β-lactam antibiotic against β-lactamase producing bacterial strains. The experimental protocol was performed according to Clinical and Laboratory Standards Institute (CLSI) guidelines with modifications as described below (CLSI guidelines can be derived from the CLSI document M07-A9 published in January 2012: “Methods for Dilution Antimicrobial Susceptibility Tests for Bacteria That Grow Aerobically; Approved Standard-Ninth Edition”). […]

[2] = test system: bacterial strains that express the class D cephalosporinase OXA-15; assay: Synergy MIC / standard BLI potentiation MIC assay, strains expressing OXA-15;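 also: more active means a lower MIC or sMIC than Avibactam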; format: cell-based, E. coli; details: in the presence of a β-lactam; comparator Avibactam (CCC)
In short: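 CLSI broth microdilution in CAMHB, ~10^5 CFU/mL, 18–20 h at 37 °C with aeration; engineered E. coli kept on 25 μg/mL tetracycline. Potentiation: β-lactam 128–0.13 μg/mL with BLI fixed at 4 μg/mL; synergy MIC: BLI serially diluted with fixed β-lactam. MIC is the lowest concentration without visible turbidity.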

Structure (SMILES)	activity against bacterial strains that express KPC β-lactamase compared with Avibactam [1]	activity against bacterial strains that express OXA-15 β-lactamase compared with Avibactam [2]
CC(C)(N)Cc1nnc([C@@H]2CC[C@@H]3CN2C(=O)N3OS(=O)(=O)O)o1 [Compound 737, (2S,5R)-2-(5-(2-amino-2-methylpropyl)-1,3,4-oxadiazol-2-yl)-7-oxo-1,6-diazabicyclo[3.2.1]octan-6-yl hydrogen sulfate]	more active than Avibactam	more active than Avibactam
N=C(N)Nc1nnc([C@@H]2CC[C@@H]3CN2C(=O)N3OS(=O)(=O)O)o1 [Compound 738, (2S,5R)-2-(5-guanidino-1,3,4-oxadiazol-2-yl)-7-oxo-1,6-diazabicyclo[3.2.1]octan-6-yl hydrogen sulfate]	more active than Avibactam	more active than Avibactam
N=C(N)NC1(Cc2nnc([C@@H]3CC[C@@H]4CN3C(=O)N4OS(=O)(=O)O)o2)CC1 [Compound 739, (2S,5R)-2-(5-((1-guanidinocyclopropyl)methyl)-1,3,4-oxadiazol-2-yl)-7-oxo-1,6-diazabicyclo[3.2.1]octan-6-yl hydrogen sulfate]	more active than Avibactam	more active than Avibactam
O=C1N2C[C@@H](CC[C@H]2c2nnc([C@H]3[C@@H]4CNC[C@@H]43)o2)N1OS(=O)(=O)O [Compound 740, (2S,5R)-2-(5-(3-azabicyclo[3.1.0]hexan-6-yl)-1,3,4-oxadiazol-2-yl)-7-oxo-1,6-diazabicyclo[3.2.1]octan-6-yl hydrogen sulfate]	more active than Avibactam	more active than Avibactam
N=C(N)N1CC(Cc2nnc([C@@H]3CC[C@@H]4CN3C(=O)N4OS(=O)(=O)O)o2)C1 [Compound 741, (2S,5R)-2-(5-((1-carbamimidoylazetidin-3-yl)methyl)-1,3,4-oxadiazol-2-yl)-7-oxo-1,6-diazabicyclo[3.2.1]octan-6-yl hydrogen sulfate]	more active than Avibactam	more active than Avibactam
O=C1N2C[C@@H](CC[C@H]2c2nnc(CCC3CNC3)o2)N1OS(=O)(=O)O [Compound 742, (2S,5R)-2-(5-(2-(azetidin-3-yl)ethyl)-1,3,4-oxadiazol-2-yl)-7-oxo-1,6-diazabicyclo[3.2.1]octan-6-yl hydrogen sulfate]	more active than Avibactam	more active than Avibactam
O=C1N2C[C@@H](CC[C@H]2c2nnc(CCCC3CNC3)o2)N1OS(=O)(=O)O [Compound 743, (2S,5R)-2-(5-(3-(azetidin-3-yl)propyl)-1,3,4-oxadiazol-2-yl)-7-oxo-1,6-diazabicyclo[3.2.1]octan-6-yl hydrogen sulfate]	more active than Avibactam	more active than Avibactam
O=C1N2C[C@@H](CC[C@H]2c2nnc(COC3CNC3)o2)N1OS(=O)(=O)O [Compound 744, (2S,5R)-2-(5-((azetidin-3-yloxy)methyl)-1,3,4-oxadiazol-2-yl)-7-oxo-1,6-diazabicyclo[3.2.1]octan-6-yl hydrogen sulfate]	more active than Avibactam	more active than Avibactam
O=C1N2C[C@@H](CC[C@H]2c2nnc(CCNC3CNC3)o2)N1OS(=O)(=O)O [Compound 745, (2S,5R)-2-(5-(2-(azetidin-3-ylamino)ethyl)-1,3,4-oxadiazol-2-yl)-7-oxo-1,6-diazabicyclo[3.2.1]octan-6-yl hydrogen sulfate]	more active than Avibactam	more active than Avibactam
N=C(N)N1CC(NCc2nnc([C@@H]3CC[C@@H]4CN3C(=O)N4OS(=O)(=O)O)o2)C1 [Compound 746, (2S,5R)-2-(5-(((1-carbamimidoylazetidin-3-yl)amino)methyl)-1,3,4-oxadiazol-2-yl)-7-oxo-1,6-diazabicyclo[3.2.1]octan-6-yl hydrogen sulfate]	more active than Avibactam	more active than Avibactam
N=C(N)N[C@H]1C[C@@H](c2nnc([C@@H]3CC[C@@H]4CN3C(=O)N4OS(=O)(=O)O)o2)C1 [Compound 749, (2S,5R)-2-(5-((1s,3R)-3-guanidinocyclobutyl)-1,3,4-oxadiazol-2-yl)-7-oxo-1,6-diazabicyclo[3.2.1]octan-6-yl hydrogen sulfate]	more active than Avibactam	more active than Avibactam
O=C1N2C[C@@H](CC[C@H]2c2nnc(C3CC4(CNC4)C3)o2)N1OS(=O)(=O)O [Compound 750, (2S,5R)-2-(5-(2-azaspiro[3.3]heptan-6-yl)-1,3,4-oxadiazol-2-yl)-7-oxo-1,6-diazabicyclo[3.2.1]octan-6-yl hydrogen sulfate]	more active than Avibactam	more active than Avibactam
N[C@H]1C[C@H](Cc2nnc([C@@H]3CC[C@@H]4CN3C(=O)N4OS(=O)(=O)O)o2)C1 [Compound 751, (2S,5R)-2-(5-(((1r,3S)-3-aminocyclobutyl)methyl)-1,3,4-oxadiazol-2-yl)-7-oxo-1,6-diazabicyclo[3.2.1]octan-6-yl hydrogen sulfate]	more active than Avibactam	more active than Avibactam
N=C(N)NC1CC(Cc2nnc([C@@H]3CC[C@@H]4CN3C(=O)N4OS(=O)(=O)O)o2)C1 (stereo partly drawn) [Compound 752, (2S,5R)-2-(5-((3-guanidinocyclobutyl)methyl)-1,3,4-oxadiazol-2-yl)-7-oxo-1,6-diazabicyclo[3.2.1]octan-6-yl hydrogen sulfate]	more active than Avibactam	more active than Avibactam
N[C@H]1C[C@H](CCc2nnc([C@@H]3CC[C@@H]4CN3C(=O)N4OS(=O)(=O)O)o2)C1 [Compound 753, (2S,5R)-2-(5-(2-((1r,3R)-3-aminocyclobutyl)ethyl)-1,3,4-oxadiazol-2-yl)-7-oxo-1,6-diazabicyclo[3.2.1]octan-6-yl hydrogen sulfate]	more active than Avibactam	more active than Avibactam
